US20220273590A1, “COMPOUNDS FOR PREVENTION AND TREATMENT OF POST-OPERATIVE COGNITIVE DYSFUNCTION” (ABREXA PHARMACEUTICALS, INC., priority 2019, published 2022)
“And” between values parts separate entries of the source, which are not always exact repeats. Identical values can stand only once. Like-named read-outs stand apart in the source and are kept apart here.

Key:
[1] = Pharmacokinetic plasma parameters of J147, oral and intravascular administration; format: in vivo, Adult Wister Rats; conditions: for FInf: calculated based on AUCInf; for Flast: calculated based on AUClast
Experimental: Plasma samples obtained during surgery in J147-treated rats and 3 control rats were measured for circulating levels of J147. Results of pharmacokinetic measures of both plasma and brain levels of J147 in rats following oral administration of J147 in basis suspension at 20 mg/kg and also following intravascular administration at 5 mg/kg are shown in Table 2A-C below. When taking the absence of an appropriate peak as zero, mean concentration is 0 ng/ml in controls, 3.103 ng/ml in acutely treated rats and 0.233 ng/ml in chronically treated rats. J147 levels in food were verified as well (467 mg/kg). […] During the first 10 days after surgery and individual housing, rats on the diet ate on average 20±1 g, which was similar to the 20±1 g in surgery with control food and 23±1 g in non-surgery controls, verifying the anticipated intake of 10 mg J147/rat/day and further supporting no preference or aversion for the diet food.

animal model of POCD = assay: Open Field test after abdominal surgery; format: in vivo, Wistar rats
Experimental: Male Wistar rats (˜350 g) were randomly divided into 4 experimental groups; non-surgery; control abdominal surgery; surgery+acute J147 treatment (7 mg/rat by gavage, 4-5 hours before surgery); surgery+chronic J147 (500 mg/kg food, 1 week before surgery until the end of the study). Timed blood samples were collected. Days 9-11 post surgery, general behavior (Open field: OF) and cognitive performance (Novel Object/Novel Location Recognition: NOR/NLR; Morris Water Maze: MWM) were tested. Day 14, rats were sacrificed and blood and brain tissue were collected for further analyses. (Neuro)inflammation was examined by circulating cytokine levels and microglia activation in the brain. Abdominal surgery was performed as described previously by Hovens et al., 2014. Rats were anaesthetized using sevoflurane (±2.5% in air/O2=2/1) and received 0.01 mg/kg buprenorphine s.c. A heating blanket was used to preserve body temperature. An incision was made along the linea alba and the intestines were exteriorised. The upper mesenteric artery was isolated from surrounding tissue and clamped for a period of 30 minutes during which the intestines and surgical wound were covered with gauze soaked in saline, to prevent dehydration. During this time the animals were equipped with an indwelling jugular vein catheter to mimic insertion of a venous line in patients and allow timed blood sampling. For that, an incision was made at the subclavical region, the jugular vein was freed from surrounding tissue and a catheter was introduced and advanced into the vena cava, just above the right atrium. The other end of the catheter was guided subcutaneously to the head, and fixated on the skull with dental cement. The catheter was filled with PVP dissolved in heparin solution and closed with a plastic plug. After subsequent removal of the mesenteric artery clamp, the intestines were gently placed back and the abdominal wall and skin were closed separately by sutures. Clamping and reperfusion were visually verified by absence or presence of pulsation in the mesenteric artery distal to the clamp site. From induction to recovery, the procedure takes approximately 60 minutes. Post-operatively, the animals were allowed to recover and subsequently were housed individually. Rats were weighed daily at the last hour of the dark period. Maximal weight loss within the first 5 days post-surgery was taken as measure of experienced severity of surgery. Behavioral tests were performed in the dark (active) period of the rats. […] The movement as well as location of the rat was recorded as time in corner, walls and center, number of visits in the center and the distance walked, and analyzed with Ethovision (Noldus, the Netherlands). Rearing behavior was analyzed by Eline. […]

[2] = IV 5 mg/kg, 1 mg/mL in DMSO/PEG 200/Saline 5/70/25, individual animals (1148, 1154, 1156, 1158), 5 mg/kg
[3] = IV 5 mg/kg, individual animals (1148, 1154, 1156, 1158), 5 mg/kg
[4] = PO_A 20 mg/kg, 7 mg/mL in Basis, individual animals (1142, 1144, 1150, 1166), 20 mg/kg
[5] = PO_A 20 mg/kg, individual animals (1142, 1144, 1150, 1166), 20 mg/kg
[6] = Wistar, rat, plasma, iv, 5 mg/kg, IV 5 mg/kg, Mean of 4 animals
[7] = Wistar, rat, plasma, po, 20 mg/kg, PO_B (oral, Basis), Mean

Tmax [1, 2]: 4.98 min and 15 min
t1/2 [1, 2]: 64.8 min and 57.8 min and 51.1 min
AUC_% Ex Trap ([1]; IV 5 mg/kg, Mean of 4 animals): 1.58%
Cl_obs ([1]; IV 5 mg/kg, Mean of 4 animals): 77.4 mL/min/kg
vss_obs ([1]; IV 5 mg/kg, Mean of 4 animals): 5.18 L/kg
AUC_% Ex Trap [1, 3]: 1.14% and 2.31% and 1.89% and 0.979%
MRT [1, 3]: 55.6 min and 44.1 min and 34.3 min
AUClast ([1]; IV 5 mg/kg, last time point 6 h, Mean of 4 animals): 782 ng·mL·h
t1/2 [1, 4]: 96.6 min and 70.8 min
AUC_% Ex Trap ([1]; PO_A 20 mg/kg, Mean): 7.60%
FInf ([1]; PO_A 20 mg/kg, Mean): 4.29%
FInf [1, 5]: 2.64% and 2.72% and 7.50%
Flast ([1]; PO_A 20 mg/kg, Mean): 3.61%
Flast [1, 5]: 2.45% and 2.23% and 2.51% and 7.25%
AUC_% Ex Trap [1, 5]: 7.91% and 9.72% and 5.17%
AUClast ([1]; PO_A 20 mg/kg, last time point 6 h, Mean): 105 ng·mL·h
AUC_% Ex Trap ([1]; PO_B (oral, Basis), Mean): 15.9%
AUClast ([1]; PO_B (oral, Basis), last time point 4 h, Mean): 64.7 ng·mL·h
half-life ([1]; Wistar, rat, plasma, iv, 5 mg/kg, IV 5 mg/kg, 1 mg/mL in DMSO/PEG 200/Saline 5/70/25, individual animals (1148, 1154, 1156, 1158)): 63.6 min
AUC(0-inf) [1, 6]: 795 ng·h/mL
half-life [1, 6]: 59.2 min
C0 ([1]; Wistar, rat, plasma, iv, 5 mg/kg, IV 5 mg/kg, Mean of 4 animals, read-out: C0): 2290 ng/mL
MRT ([1]; Wistar, rat, plasma, iv, 5 mg/kg, IV 5 mg/kg, Mean of 4 animals, read-out: MRT): 41.7 min
Tmax ([1]; Wistar, rat, plasma, iv, 5 mg/kg, IV 5 mg/kg, Mean of 4 animals, read-out: tmax): 7.5 min
AUC(0-inf) ([1]; Wistar, rat, plasma, iv, 5 mg/kg, IV 5 mg/kg, individual animals (1148, 1154, 1156, 1158)): 924 ng·h/mL
MRT ([1]; Wistar, rat, plasma, iv, 5 mg/kg, IV 5 mg/kg, individual animals (1148, 1154, 1156, 1158), read-out: MRT): 32.8 min
half-life ([1]; Wistar, rat, plasma, po, 20 mg/kg, PO_A 20 mg/kg, 7 mg/mL in Basis, Mean): 84.6 min
Cmax ([1]; Wistar, rat, plasma, po, 20 mg/kg, PO_A 20 mg/kg, 7 mg/mL in Basis, Mean, read-out: Cmax): 43.7 ng/mL
Tmax ([1]; Wistar, rat, plasma, po, 20 mg/kg, PO_A 20 mg/kg, 7 mg/mL in Basis, Mean, read-out: tmax): 52.8 min
half-life ([1]; Wistar, rat, plasma, po, 20 mg/kg, PO_A 20 mg/kg, 7 mg/mL in Basis, individual animals (1142, 1144, 1150, 1166)): 87 min
Tmax ([1]; Wistar, rat, plasma, po, 20 mg/kg, PO_A 20 mg/kg, 7 mg/mL in Basis, individual animals (1142, 1144, 1150, 1166), read-out: tmax): 60 min
AUC(0-inf) ([1]; Wistar, rat, plasma, po, 20 mg/kg, PO_A 20 mg/kg, Mean): 121 ng·h/mL
AUC(0-inf) [1, 7]: 76.9 ng·h/mL
half-life [1, 7]: 85.2 min
Cmax ([1]; Wistar, rat, plasma, po, 20 mg/kg, PO_B (oral, Basis), Mean, read-out: Cmax): 47.4 ng/mL
Tmax ([1]; Wistar, rat, plasma, po, 20 mg/kg, PO_B (oral, Basis), Mean, read-out: tmax): 30 min
Compound: COc1cccc(/C=N/N(C(=O)C(F)(F)F)c2ccc(C)cc2C)c1 [J147]
C0 [1, 2]: 4706 ng/mL and 384 ng/mL and 1572 ng/mL and 2509 ng/mL
Cl_obs [1, 2]: 90.2 mL/min/kg and 98.9 mL/min/kg and 107 mL/min/kg
AUCInf [1, 3]: 842 ng·h/mL and 631 ng·h/mL and 781 ng·h/mL
vss_obs [1, 3]: 3.39 L/kg and 6.41 L/kg and 6.82 L/kg and 4.07 L/kg
AUClast ([1]; IV 5 mg/kg, last time point 6 h, individual animals (1148, 1154, 1156, 1158), 5 mg/kg): 913 ng·mL·h and 823 ng·mL·h and 619 ng·mL·h and 774 ng·mL·h
Cmax [1, 4]: 29.0 ng/mL and 39.9 ng/mL and 36.5 ng/mL and 69.2 ng/mL
AUCInf [1, 5]: 82.5 ng·h/mL and 91.5 ng·h/mL and 189 ng·h/mL
AUClast ([1]; PO_A 20 mg/kg, last time point 6 h, individual animals (1142, 1144, 1150, 1166), 20 mg/kg): 76.0 ng·mL·h and 81.6 ng·mL·h and 82.6 ng·mL·h and 180 ng·mL·h
Open field: effect of treatment on time in the center area or distance walked (animal model of POCD; acute or chronic J147, surgery rats): no significant effects
Open field: rearing behavior (animal model of POCD; surgery + chronic J147): significantly more rearing behavior
Open field: visits to the center area (animal model of POCD; surgery + chronic J147): significantly more often
Open field: time in the center (animal model of POCD; surgery + chronic J147, versus the other groups): tend to spend more time in the center
